Results on seven compounds are retold here after ChEMBL document CHEMBL5260848, “Recent advancements in the development of bioactive pyrazoline derivatives” (Eur J Med Chem, 2020).

Molecules are shown by their SMILES. In brackets after ≈: the same amount, converted by molar mass.

One experiment relates to Jurkat. Briefly: Cytotoxicity against human Jurkat T cells. It is filed as functional, cell-based.
The nature of experiment [1]: Cytotoxicity against human PBMC cells. It is filed as functional, cell-based.
The test system of the next experiment is ASPC1. Briefly: Cytotoxicity against human ASPC1 cells. The experiment is classed as functional, cell-based.
The subject of experiment [2] is Aspergillus fumigatus. Briefly: Antifungal activity against Aspergillus fumigatus. The experiment is classed as functional.
The test system of experiment [3] is Candida albicans. Briefly: Antifungal activity against Candida albicans assessed as fungal growth inhibition. It is filed as functional.
For experiment [4], the system named is Proteus vulgaris. Briefly: Antimicrobial activity against Proteus vulgaris assessed as inhibition of bacterial growth. It is filed as functional.
Experiment [5] has as its system Candida albicans. Briefly: Antifungal activity against Candida albicans assessed as zone of inhibition. The experiment is classed as functional.
The test system of experiment [6] is Aspergillus fumigatus. Briefly: Antifungal activity against Aspergillus fumigatus assessed as zone of inhibition. The experiment is classed as functional.
Experiment [7] has as its system Bacillus subtilis. Briefly: Antimicrobial activity against Bacillus subtilis. The experiment is classed as functional.
In experiment [8] the test system is Staphylococcus aureus. Briefly: Antimicrobial activity against Staphylococcus aureus assessed as inhibition of bacterial growth. It is filed as functional.
Experiment [9] concerns Escherichia coli. Briefly: Antimicrobial activity against Escherichia coli assessed as inhibition of bacterial growth. The experiment is classed as functional.
Another experiment has as its system AGS. Briefly: Anticancer activity against human AGS cells by MTS assay. It is filed as functional, cell-based. A general note: Tetrazolium assays rely on reduction of a dye to a coloured formazan, in cell work by metabolically active cells.
For another experiment, the system named is ECa-109 cell line. Briefly: Anticancer activity against human Eca-109 cells by MTS assay. It is filed as functional, cell-based.
The nature of experiment [10]: Anticancer activity against human HCC446 cells by MTS assay. The experiment is classed as functional, cell-based.
A further experiment deals with Monascus purpureus. Briefly: Antifungal activity against Monascus purpureus MTCC 369 by plate dilution method relative to control. The experiment is classed as functional.
The test system of the next experiment is Bacillus cereus. Briefly: Antibacterial activity against Bacillus cereus ATCC 9946 by plate dilution method. It is filed as functional.
Experiment [11] deals with Staphylococcus epidermidis. Briefly: Antibacterial activity against Staphylococcus epidermidis ATCC 12228 by plate dilution method. It is filed as functional.
Experiment [12] concerns Staphylococcus aureus. Briefly: Antibacterial activity against Staphylococcus aureus ATCC 25923 by plate dilution method. It is filed as functional.
Another experiment relates to Klebsiella pneumoniae. Briefly: Antibacterial activity against Klebsiella pneumoniae ATCC 700603 by plate dilution method. The experiment is classed as functional.
For the next experiment, the system named is Enterococcus faecalis. Briefly: Antibacterial activity against Enterococcus faecalis ATCC 29212 by plate dilution method. The experiment is classed as functional.
Experiment [13] concerns Proteus vulgaris. Briefly: Antibacterial activity against Proteus vulgaris ATCC 9920 by plate dilution method. The experiment is classed as functional.
For another experiment, the system named is Aspergillus niger. Briefly: Antifungal activity against Aspergillus niger MTCC 281 by plate dilution method relative to control. The experiment is classed as functional.
Another experiment relates to Aspergillus flavus. Briefly: Antifungal activity against Aspergillus flavus MTCC 277 by plate dilution method relative to control. It is filed as functional.
Experiment [14] relates to Candida albicans. Briefly: Antifungal activity against Candida albicans ATCC 2091 by plate dilution method relative to control. The experiment is classed as functional.
The subject of experiment [15] is Bordetella bronchiseptica. Briefly: Antibacterial activity against Bordetella bronchiseptica ATCC 4617 by plate dilution method. The experiment is classed as functional.
In a further experiment the test system is Pseudomonas aeruginosa. Briefly: Antibacterial activity against Pseudomonas aeruginosa ATCC 27853 by plate dilution method. It is filed as functional.
A further experiment has as its system Penicillium citrinum. Briefly: Antifungal activity against Penicillium citrinum NCIM 768 by plate dilution method relative to control. It is filed as functional.
Experiment [16] deals with Escherichia coli. Briefly: Antibacterial activity against Escherichia coli ATCC 25922 by plate dilution method. The experiment is classed as functional.
The test system of experiment [17] is Bacillus subtilis. Briefly: Antibacterial activity against Bacillus subtilis ATCC 6633 by plate dilution method. The experiment is classed as functional.
In experiment [18] the test system is Plasmodium falciparum. Briefly: In vivo antimalarial activity against Plasmodium berghei K173 infected in mouse assessed as reduction in parasitemia at 100 mg/kg, ip measured after 6 days by giemsa staining based microscopic analysis relative to control. The experiment is classed as functional. Details: scale not given: the % may be the effect or the level left. The conditions noted are these: time 6 day.

The subject of experiment [19] is Plasmodium falciparum. Briefly: Antimalarial activity against chloroquine-sensitive Plasmodium falciparum NF54 measured after 72 hrs by giemsa staining based analysis. The experiment is classed as functional, organism-based. The conditions noted are these: NF54, 72 h.
For experiment [20], the system named is Plasmodium falciparum. Briefly: In vivo antimalarial activity against Plasmodium berghei K173 infected in mouse assessed as chemo-supression percentage at 50 mg/kg, ip by giemsa staining based microscopic analysis relative to control. The experiment is classed as functional.
For experiment [21], the system named is Plasmodium falciparum. Briefly: In vivo antimalarial activity against Plasmodium berghei K173 infected in mouse assessed as reduction in parasitemia at 50 mg/kg, ip measured after 6 days by giemsa staining based microscopic analysis relative to control. It is filed as functional. The arrangement: scale not given: the % may be the effect or the level left. The conditions noted are these: time 6 day.

For experiment [22], the system named is Plasmodium falciparum. Briefly: In vivo antimalarial activity against Plasmodium berghei K173 infected in mouse assessed as chemo-supression percentage at 100 mg/kg, ip by giemsa staining based microscopic analysis relative to control. It is filed as functional.
For a further experiment, the system named is Hemozoin. Briefly: Inhibition of Beta-hematin in Plasmodium berghei.
Experiment [23] relates to Bacillus subtilis. Briefly: microbe, parasite or virus in culture.
For experiment [24], the system named is Staphylococcus aureus. Briefly: microbe, parasite or virus in culture.
A short description of experiment [25]: Inhibition of Bacillus subtilis DNA gyrase.
In another experiment the test system is Rhizopus arrhizus. Briefly: Antifungal activity against Rhizopus oryzae. The experiment is classed as functional.
For experiment [26], the system named is Plasmodium falciparum. Briefly: Antimalarial activity against chloroquine-sensitive Plasmodium falciparum 3D7. The experiment is classed as functional, organism-based.
For experiment [27], the system named is Staphylococcus aureus. Briefly: Antibacterial activity against Staphylococcus aureus. It is filed as functional.
The subject of experiment [28] is Escherichia coli. Briefly: Antibacterial activity against Escherichia coli. The experiment is classed as functional.

Take `Cc1ccc(-c2nnc(SCC(=O)N3N=C(c4cccs4)CC3c3ccc(Cl)cc3)o2)cc1` (configuration not stated): the IC50 in the experiment with Jurkat turned out to be 90 µM; in experiment [1] it was 1000 µM; in the experiment on ASPC1 it was 16.8 µM.

With `Clc1ccc(C2CC(c3cccs3)=NN2c2nc(-c3ccccc3)cs2)c(Cl)c1` (configuration not stated), the MIC against Aspergillus fumigatus [2] came out at 312 µg/mL (≈ 685 µM); in the experiment with Candida albicans [3] it was 62.5 µg/mL (≈ 137 µM); with Proteus vulgaris [4], 9.77 µg/mL (≈ 21.4 µM); against Bacillus subtilis [7], 9.77 µg/mL (≈ 21.4 µM); with Staphylococcus aureus [8] it was 9.77 µg/mL (≈ 21.4 µM); in the experiment on Escherichia coli [9] it was 9.77 µg/mL (≈ 21.4 µM). Moreover, the “inhibition zone (IZ)” value in the experiment on Candida albicans [5] is 23 mm; in the experiment on Aspergillus fumigatus [6] it was 28 mm.

As for `C[C@]12CCC3(CC1=CCC1C2CC[C@]2(C)C4=NN[C@H](c5ccccc5)[C@H]4CC12)OCCO3` (some centres not stated), the IC50 came out at 27.4 µM with AGS, 17.5 µM in the experiment on ECa-109 cell line and 25.3 µM in experiment [10].

On to `O=c1oc2ccc(F)cc2cc1-c1csc(N2N=C(c3ccc(F)cc3)CC2c2cc3ccccc3nc2Cl)n1` (configuration not stated), for which the Activity in the experiment on Monascus purpureus stood at 79.72%; with Aspergillus niger, 83.59%; in the experiment with Aspergillus flavus, 98%; with Candida albicans [14], 98.95%; in the experiment with Penicillium citrinum it was 91.42%. Besides, the MIC (against Bacillus cereus; in experiment [11]; in the experiment with Staphylococcus aureus [12]; with Klebsiella pneumoniae; against Enterococcus faecalis; against Proteus vulgaris [13]) was 50 µg/mL (≈ 87.6 µM) throughout. Also, the MIC (in experiment [15]; in the experiment with Pseudomonas aeruginosa; against Escherichia coli [16]; in the experiment on Bacillus subtilis [17]) was 50 µg/mL (≈ 87.6 µM) in each case.

Regarding `COc1cc(C)c(C2C=C(c3cc(OC)c(OC)c(OC)c3)N(C(=O)OC(C)C)N2C(=O)OC(C)C)cc1C(C)C` (configuration not stated), the Activity with Plasmodium falciparum [18] came to 4.62%; in the experiment on Plasmodium falciparum [20], 25.29%; in the experiment with Plasmodium falciparum [21], 8.03%; in the experiment with Plasmodium falciparum [22], 55.6%. Further, the IC50 in the experiment on Plasmodium falciparum [19] was below 2 µM; in the experiment on Hemozoin, 38.8 µM.

As for `CC(=O)N1N=C(c2ccc(C)cc2)CC1c1cc(Cl)ccc1Oc1c([N+](=O)[O-])cc(C(F)(F)F)cc1[N+](=O)[O-]` (configuration not stated), the MIC against Bacillus subtilis [23] and in the experiment with Staphylococcus aureus [24] was 0.39 µg/mL (≈ 0.693 µM) in each case. This compound also yielded an IC50 in experiment [25] of 0.125 µg/mL (≈ 0.222 µM).

As to `COc1cc(C2CC(c3cc4ccccc4oc3=O)=NN2c2ccccc2)cc(OC)c1OC` (configuration not stated), the figures for the MIC with Rhizopus arrhizus, with Staphylococcus aureus [27] and in the experiment with Escherichia coli [28] were 12.5 µg/mL (≈ 27.4 µM), 10 µg/mL (≈ 21.9 µM) and 12.5 µg/mL (≈ 27.4 µM), respectively. The compound further yielded an IC50 in the experiment with Plasmodium falciparum [26] of 11.6 µg/mL (≈ 25.5 µM).

In general, IC50 refers to the concentration at which inhibition is half-maximal.
